# Earlier results in PubChem BioAssay AID1259410 (Chemical Carcinogenesis Research Information System (CCRIS), 2018).
# System: rodent tumor promotion studies, tumor incidence
# Test: CCRIS tumor promotion studies
smiles,measurement,setting,value
CCC(=O)O[C@H]1CC[C@H]2[C@@H]3CCC4=CC(=O)CC[C@]4(C)[C@H]3CC[C@]12C,outcome,"Carcinogen: 3,2'-DIMETHYL-4-AMINOBIPHENYL, 13394-86-0, Doses [Carcinogen]: 50 MG/KG 1/2 WK FOR 20 WK, Doses [Promoter]: CONTINUOUS ADMINISTRATION TO CASTRATED RATS FOR 40 WK, IMPLANTS REPLACED AT 6-WK INTERVALS (STUDY DURATION: 60 WK), Route [Carcinogen]: SUBCUTANEOUS, Route [Promoter]: SUBCUTANEOUS IMPLANT, Species: RAT, Strain/Sex: F344/MALE",prostate: carcinoma; seminal vesicle: carcinoma
same,outcome,"Carcinogen: 3,2'-DIMETHYL-4-AMINOBIPHENYL, 13394-86-0, Doses [Carcinogen]: 50 MG/KG 1/2 WK FOR A TOTAL OF 10 INJECTIONS, Doses [Promoter]: 0, 40 MG IN SILASTIC TUBES IMPLANTED 1 WK PRIOR TO CARCINOGEN TREATMENT AND CONTINUING FOR DURATION OF STUDY WITH REPLAC, Route [Carcinogen]: SUBCUTANEOUS, Route [Promoter]: SUBCUTANEOUS IMPLANT, Species: RAT, Strain/Sex: F344/MALE",dorsolateral prostate: carcinoma; seminal vesicle: carcinoma
same,outcome,"Carcinogen: 3,2'-DIMETHYL-4-AMINOBIPHENYL, 13394-86-0, Doses [Carcinogen]: 50 MG/KG 1/2 WK FOR A TOTAL OF 10 INJECTIONS, Doses [Promoter]: 0, 100 MG/KG 1/D FOR 3 D PRECEDING EACH CARCINOGEN DOSE (STUDY DURATION: 56 WK), Route [Carcinogen]: SUBCUTANEOUS, Route [Promoter]: SUBCUTANEOUS, Species: RAT, Strain/Sex: F344/MALE",skin/subcutis: tumor
same,outcome,"Carcinogen: 3,2'-DIMETHYL-4-AMINOBIPHENYL, 13394-86-0, Doses [Carcinogen]: 50 MG/KG 1/2 WK FOR A TOTAL OF 10 INJECTIONS, Doses [Promoter]: 0, 100 MG/KG 1/D FOR 3 D PRECEDING EACH CARCINOGEN DOSE THEN 0, 40 MG IN SILASTIC TUBES IMPLANTED POST LAST CARCINOGEN D, Doses [Promoter]: 0, 100 MG/KG 1/D FOR 3 D PRECEDING EACH CARCINOGEN DOSE THEN 0, 40 MG IN SILASTIC TUBES IMPLANTED POST LAST CARCINOGEN D, Route [Carcinogen]: SUBCUTANEOUS, Route [Promoter]: SUBCUTANEOUS, Species: RAT, Strain/Sex: F344/MALE",dorsolateral prostate: carcinoma; seminal vesicles: carcinoma
same,outcome,"Carcinogen: 3,2'-DIMETHYL-4-AMINOBIPHENYL, 13394-86-0, Doses [Carcinogen]: 50 MG/KG BW 1/2 WK FOR 10 DOSES, Doses [Promoter]: 20, 40 MG/SILASTIC TUBE IMPLANT REPLACED AT 6 WK INTERVALS (STUDY DURATION: 60 WK), Route [Carcinogen]: SUBCUTANEOUS, Route [Promoter]: SUBCUTANEOUS, Species: RAT, Strain/Sex: F344/MALE",prostate (anterior): carcinoma; seminal vesicles: carcinoma
same,outcome,"Carcinogen: 3,2'-DIMETHYL-4-AMINOBIPHENYL, 58109-32-3, Doses [Carcinogen]: 50 MG/KG BW 1/2 WK FOR 20 WK, Doses [Promoter]: 0, 40 MG BEGINNING POST CARCINOGEN TREATMENT AND RENEWED AT 6 WK INTERVALS FOR 40 WK (STUDY DURATION: 60 WK), Route [Carcinogen]: SUBCUTANEOUS, Route [Promoter]: SUBCUTANEOUS IMPLANT, Species: RAT, Strain/Sex: F344/MALE",seminal vesicles: carcinoma
same,outcome,"Carcinogen: 17 BETA-ESTRADIOL [50-28-2], Doses [Carcinogen]: 22 MG AT 3 MO OF AGE ONCE/3 MO FOR 1 YR, Doses [Promoter]: 0, 60 MG AT 3 MO OF AGE ONCE/3 MO FOR 1 YR (STUDY DURATION: 1 YR), Route [Carcinogen]: SUBCUTANEOUS IMPLANT, Route [Promoter]: SUBCUTANEOUS IMPLANT, Species: RAT, Strain/Sex: NOBLE/FEMALE (?,18)/(?/15)",mammary gland: tumor
same,outcome,"Carcinogen: 17 BETA-ESTRADIOL, 50-28-2, Doses [Carcinogen]: 22 MG AT 3 MO OF AGE ONCE EVERY 3 MO FOR 1 YR, Doses [Promoter]: 0, 120 MG AT 3 MO OF AGE, 1/3 MO FOR 1 YR (STUDY DURATION: 1 YR), Route [Carcinogen]: SUBCUTANEOUS IMPLANT, Route [Promoter]: SUBCUTANEOUS IMPLANT, Species: RAT, Strain/Sex: NOBLE/FEMALE",mammary gland: tumor
same,outcome,"Carcinogen: N-BUTYL-N-(4-HYDROXYBUTYL)NITROSAMINE [3817-11-6], Doses [Carcinogen]: 0.05% IN DRINKING WATER FOR 18 WK (STUDY DURATION: 18 WK), Doses [Promoter]: 0, 3 MG/KG BW FOR 18 WK (STUDY DURATION: 18 WK), Route [Carcinogen]: ORAL, Route [Promoter]: INTRAMUSCULAR, Species: MOUSE, Strain/Sex: C57B6/6/MALE",urinary bladder: tumor
same,outcome,"Carcinogen: N-METHYL-N-NITROSOUREA, 684-93-5, Doses [Carcinogen]: 30 MG/KG BW ONCE, Doses [Promoter]: 0, 25 MG IMPLANT CHANGED AT 2 MO INTERVALS FOR A TOTAL OF 3 TIMES (STUDY DURATION: 14 MO), Route [Carcinogen]: INTRAVENOUS, Route [Promoter]: SUBCUTANEOUS IMPLANT, Species: RAT, Strain/Sex: LOBUND-WISTAR/MALE",prostate/seminal vesicles: tumor
same,outcome,"Carcinogen: N-METHYL-N-NITROSOUREA, 684-93-5, Doses [Carcinogen]: 30 MG/KG ONCE, Doses [Promoter]: 0, 50 MG IN SILASTIC MEMBRANE IMPLANT BEGINNING 1 MO POST CARCINOGEN DOSE AND REPEATED AT INTERVALS OF 2 MO FOR A TOTAL, Route [Carcinogen]: INTRAVENOUS, Route [Promoter]: SUBCUTANEOUS IMPLANT, Species: RAT, Strain/Sex: LOBUND-WISTAR/MALE",prostate: adenocarcinoma
same,outcome,"Carcinogen: N-METHYL-N-NITROSOUREA, 684-93-5, Doses [Carcinogen]: 30 MG/KG ONCE, Doses [Promoter]: 0, 50 MG IN SILASTIC MEMBRANE IMPLANT BEGINNING 1 WK POST CARCINOGEN DOSE AND REPEATED AT INTERVALS OF 2 MO FOR A TOTAL, Route [Carcinogen]: INTRAVENOUS, Route [Promoter]: SUBCUTANEOUS IMPLANT, Species: RAT, Strain/Sex: LOBUND-WISTAR/MALE",prostate: adenocarcinoma
same,outcome,"Carcinogen: N-METHYL-N-NITROSOUREA, 684-93-5, Doses [Carcinogen]: 30 MG/KG ONCE, Doses [Promoter]: 0, 50 MG IN SILASTIC MEMBRANE IMPLANT BEGINNING 1 WK POST CARCINOGEN DOSE FOLLOWED BY SECOND IMPLANT 2 MO LATER (STUDY D, Route [Carcinogen]: INTRAVENOUS, Route [Promoter]: SUBCUTANEOUS IMPLANT, Species: RAT, Strain/Sex: LOBUND-WISTAR/MALE",prostate: adenocarcinoma
same,outcome,"Carcinogen: N-METHYL-N-NITROSOUREA, 684-93-5, Doses [Carcinogen]: 30 MG/KG ONCE, Doses [Promoter]: 0, 50 MG IN SILASTIC MEMBRANE IMPLANT BEGINNING 2 MO POST CARCINOGEN DOSE AND REPEATED AT INTERVALS OF 2 MO FOR A TOTAL, Route [Carcinogen]: INTRAVENOUS, Route [Promoter]: SUBCUTANEOUS IMPLANT, Species: RAT, Strain/Sex: LOBUND-WISTAR/MALE",prostate: adenocarcinoma
same,outcome,"Carcinogen: N-METHYLNITROSOUREA, 684-93-5, Doses [Carcinogen]: 15 MG/KG/BW 1/4 WK FOR 5 INJECTIONS EACH FOLLOWING 2 WK PRETREATMENT WITH DIETARY ETHINYL ESTRADIOL, Doses [Promoter]: 0, 40 MG IMPLANTS REPLACED AT 6 WK INTERVALS FOR 40 WK IN RATS MAINTAINED ON DIETS WITH OR WITHOUT HIGH FAT CONTENT (20%, Route [Carcinogen]: INTRAVENOUS, Route [Promoter]: SUBCUTANEOUS IMPLANT, Species: RAT, Strain/Sex: F344/MALE",seminal vesicles: carcinoma; congulating glands: carcinoma
same,outcome,"Carcinogen: N-NITROSOBIS(2-OXOPROPYL)AMINE, 60599-38-4, Doses [Carcinogen]: 20 MG/KG 1/4 WK FOR 5 INJECTIONS EACH FOLLOWING 2 WK PRETREATMENT WITH DIETARY ETHINYL ESTRADIOL, Doses [Promoter]: 0, 40 MG IMPLANTS REPLACED AT 6 WK INTERVALS FOR 40 WK IN RATS MAINTAINED ON DIETS WITH OR WITHOUT HIGH FAT CONTENT (20%, Route [Carcinogen]: SUBCUTANEOUS, Route [Promoter]: SUBCUTANEOUS IMPLANT, Species: RAT, Strain/Sex: F344/MALE",seminal vesicles: carcinoma
c1ccc(-c2ccccc2)cc1,outcome,"Carcinogen: N-BUTYL-N-(4-HYDROXYBUTYL)NITROSAMINE, 3817-11-6, Doses [Carcinogen]: 0.05% IN DRINKING WATER FOR 4 WK, Doses [Promoter]: 0, 0.5% IN DIET FOR 32 WK BEGINNING POST CARCINOGEN TREATMENT (STUDY DURATION: 36 WK), Route [Carcinogen]: ORAL, Route [Promoter]: ORAL, Species: RAT, Strain/Sex: F344/MALE","urinary bladder: papilloma, carcinoma"
CCOc1ccc2c(c1)C(C)=CC(C)(C)N2,outcome,"Carcinogen: 1,2-DIMETHYLHYDRAZINE, 540-73-8, Doses [Carcinogen]: 20 MG/KG 1/WK FOR 4 WK, Doses [Promoter]: 0, 0.8% IN DIET FOR 36 WK (STUDY DURATION: 40 WK), Route [Carcinogen]: SUBCUTANEOUS, Route [Promoter]: ORAL, Species: RAT, Strain/Sex: F344/MALE",colon: tumor
same,outcome,"Carcinogen: N-BUTYL-N-(4-HYDROXYBUTYL)NITROSAMINE, 3817-11-6, Doses [Carcinogen]: 0.05% IN DRINKING WATER FOR 4 WK, Doses [Promoter]: 0, 0.8% IN DIET FOR 32 WK (STUDY DURATION: 36 WK), Route [Carcinogen]: ORAL, Route [Promoter]: ORAL, Species: RAT, Strain/Sex: F344/MALE","urinary bladder: papilloma, carcinoma"
same,outcome,"Carcinogen: N-BUTYL-N-(4-HYDROXYBUTYL)NITROSAMINE, 3817-11-6, Doses [Carcinogen]: 0.05% IN DRINKING WATER FOR 4 WK, Doses [Promoter]: 0, 0.8% IN DIET FOR 32 WK BEGINNING POST CARCINOGEN (STUDY DURATION: 36 WK), Route [Carcinogen]: ORAL, Route [Promoter]: ORAL, Species: RAT, Strain/Sex: F344/MALE",bladder: papilloma
same,outcome,"Carcinogen: N-ETHYL-N-(HYDROXYETHYL)NITROSAMINE, 13147-25-6, Doses [Carcinogen]: 0.1% IN DRINKING WATER FOR 2 WK, Doses [Promoter]: 0, 0.8% IN DIET FOR 29 WK (STUDY DURATION: 31 WK), Route [Carcinogen]: ORAL, Route [Promoter]: ORAL, Species: RAT, Strain/Sex: F344/MALE",kidney: adenoma
